A short description of series [1]: In situ brain perfusion. It counts as in vivo, rat. Particulars: 10 μmol/L. The method, then: The rat brain was perfused following a previously described method. Briefly, the common carotid arteries on both sides were cannulated and connected to the perfusion system, while the external carotid artery was ligated. At the beginning of perfusion, the jugular veins on both sides were quickly incised. The perfusion procedure consisted of a preperfusion wash with saline for 1 min, followed by drug infusion (2 µmol/L IMM-H004 or IMM-H004G) for 2, 5, and 10 min, and concluded with a postperfusion wash (saline for 5 min) at a rate of 4.0 mL/min. To examine the impact of P-gp (PSC833, 5 µmol/L) and OATP (rifamycin SV, 100 µmol/L) on BBB transport, the perfusate containing the inhibitor was perfused for 1 min, and then the mixture of IMM-H004 or IMM-H004G (10 µmol/L) and the inhibitor was perfused for 10 min. Following the perfusion, the rats were decapitated, and their brains were homogenized (1:3, w/v) in chilled saline. The concentrations of IMM-H004 and IMM-H004G were then determined by LC-MS/MS.
The unidirectional transfer constant Kin (mL/min/g) was calculated using the following equation:(4) Kin=Qbr/Cpf[…] where Qbr/Cpf is the apparent brain distribution volume, Qbr is the measured amount of compound in brain tissue, Cpf is the concentration of compound in the perfusate, and T is the perfusion time.

The nature of series [2]: In vitro metabolism in rat brain homogenate. The class given is in vitro ADME. The method, then:
Rat brains were homogenized in chilled saline (1:3, w/v) on ice to obtain the brain homogenate. The incubation mixtures composed of the brain homogenate (2 mg protein/mL), alamethicin (50 μg/mg protein), IMM-H004 (10 μmol/L), and UDPGA (5 mmol/L) in a final volume of 0.2 mL of Tris-HCl buffer (50 mmol/L, pH 7.4) containing 5 mmol/L of MgCl2. Before initiating the reaction, the brain homogenate was preincubated with alamethicin on ice for 15 min. Subsequently, IMM-H004 and UDPGA were added to initiate the reaction. After incubating at 37 °C for 60 min, the reaction was quenched by adding two volumes of acetonitrile containing IS (0.1 μg/mL). On the other hand, IMM-H004G (1 μmol/L) was incubated with the brain homogenate (2 mg protein/mL) for up to 4 h. The concentrations of IMM-H004 and IMM-H004G were determined by LC-MS/MS.

Series [3] has as its system OAT, OCT, OCTN, BCRP, and MRP. As to the kind of experiment: Identification of transporters using inhibitors in hCMEC/D3 cells: other transporters. The class given is cell-based, human. As to conditions: substrate 10 μmol/L. The method, then: (§1) The toxicity of all compounds, including inhibitors and substrates, toward hCMEC/D3 cells, was assessed using the 3-(4,5-Dimethylthiazol-2-yl)-2,5-diphenyltetrazolium bromide (MTT) reduction assay as described previously. To assess the effects of pyrilamine-sensitive proton-coupled organic cation (H^+/OC) antiporter, organic anion transporter (OAT), organic anion-transporting polypeptides (OATPs), organic cation transporter (OCT), and novel organic cation–carnitine transporter (OCTN) inhibitors on the uptake process, IMM-H004 or IMM-H004G (10 µmol/L) combined with the inhibitors were added to the medium after preincubating the cells with the inhibitors for 30 min. For evaluating the impact of the multidrug and toxin extrusion transporter (MATE), P-glycoprotein (P-gp), multidrug resistance protein (MRP), and breast cancer resistance protein (BCRP) on the uptake, IMM-H004 or IMM-H004G (10 µmol/L) was preincubated with the cells for 2 h before the addition of the inhibitors. After removing the supernatant, the cells were washed twice with prewarmed HBSS and incubated with fresh HBSS for 20 min. At the end of incubation, the supernatants were collected. […] The protein content of the lysed cells was determined using a bicinchoninic acid (BCA) assay kit (Beyotime Inc., Shanghai, China). The results were expressed as a percentage of the vehicle control.

The conditions of series [4]: cited from earlier work.
The target of series [5] is T1, P-gp (Homo sapiens, UniProt P08183).
T1 construct: host or cells: hCMEC/D3
As to the kind of experiment: Identification of transporters using inhibitors in hCMEC/D3 cells: P-gp. As to conditions: substrate 10 μmol/L, PSC833 5 μmol/L. The class given is cell-based. The method, then: as §1

Series [6] in a line: Plasma protein binding, rapid equilibrium dialysis. The class given is in vitro ADME. As to conditions: rat, 0.5–10 μg/mL, RED, 37 °C, read-out: unbound fraction (fu) in rat plasma. The method, then: The rat plasma protein binding of IMM-H004 and IMM-H004G (0.5–10 μg/mL) was investigated using a rapid equilibrium dialysis (RED) assay. The RED plate inserts utilized in this assay contained a dialysis membrane with a molecular weight cut-off of 8 kDa (Thermo Fisher Scientific, Waltham, MA, USA). For the assay, aliquots of plasma (0.2 mL) and phosphate-buffered saline (0.35 mL) were added to the sample chamber and buffer chamber, respectively. The plate was then sealed and incubated at 37 °C, 200 rpm for 4 h. Following the dialysis period, the concentrations of IMM-H004 and IMM-H004G were determined using LC-MS/MS. The ratio of the drug concentration in the buffer to that in the plasma chamber was used to calculate the unbound fraction (fu) of the drugs.

Series [7] has as its system pyrilamine-sensitive H^+/OC antiporter. As to the kind of experiment: Identification of transporters using inhibitors in hCMEC/D3 cells: H+/OC antiporter. The class given is cell-based, human. Particulars: substrate 10 μmol/L; for reduction of uptake by quinidine: quinidine 100 μmol/L; for reduction of uptake by verapamil: verapamil 100 μmol/L. The method, then: The toxicity of all compounds, including inhibitors and substrates, toward hCMEC/D3 cells, was assessed using the 3-(4,5-Dimethylthiazol-2-yl)-2,5-diphenyltetrazolium bromide (MTT) reduction assay as described previously. To assess the effects of pyrilamine-sensitive proton-coupled organic cation (H^+/OC) antiporter, organic anion transporter (OAT), organic anion-transporting polypeptides (OATPs), organic cation transporter (OCT), and novel organic cation–carnitine transporter (OCTN) inhibitors on the uptake process, IMM-H004 or IMM-H004G (10 µmol/L) combined with the inhibitors were added to the medium after preincubating the cells with the inhibitors for 30 min. For evaluating the impact of the multidrug and toxin extrusion transporter (MATE), P-glycoprotein (P-gp), multidrug resistance protein (MRP), and breast cancer resistance protein (BCRP) on the uptake, IMM-H004 or IMM-H004G (10 µmol/L) was preincubated with the cells for 2 h before the addition of the inhibitors. After removing the supernatant, the cells were washed twice with prewarmed HBSS and incubated with fresh HBSS for 20 min. At the end of incubation, the supernatants were collected. The cells were washed with cold HBSS and lysed using RIPA buffer. The protein content of the lysed cells was determined using a bicinchoninic acid (BCA) assay kit (Beyotime Inc., Shanghai, China). The results were expressed as a percentage of the vehicle control.

A short description of series [8]: Uptake kinetics in hCMEC/D3 cells. Particulars: human, hCMEC/D3 cells, 2–400 μmol/L, 10 min. The class given is cell-based, human. How it is done: (§2) Uptake assays into hCMEC/D3 cells were conducted in 24-well plates. All incubations were carried out at 37 °C in triplicate unless otherwise noted. In time-dependent uptake studies, hCMEC/D3 cells were incubated with IMM-H004 (10 µmol/L) and IMM-H004G (50 µmol/L) dissolved in HBSS under gentle shaking for up to 30 min. To investigate the impact of incubation temperature on the uptake of IMM-H004 and IMM-H004G by hCMEC/D3 cells, incubation was performed at 4 or 37 °C for 10 min. To determine the kinetic parameters, the cells were incubated with IMM-H004 and IMM-H004G (2–400 µmol/L) for 10 min. The uptake data were fitted to the following equation using nonlinear least-square regression analysis in GraphPad Prism 9 (GraphPad, San Diego, CA, USA):(1) V=Vmax×S/Km+S+Kns×S where V is the uptake velocity (nmol/mg protein/min), and S is the initial concentration (μmol/L). Vmax, Km, and Kns represent the maximum uptake velocity (nmol/mg protein/min), the Michaelis–Menten constant (μmol/L), and nonsaturable uptake clearance (μL/mg protein/min), respectively. The saturable uptake of both IMM-H004 and IMM-H004G was plotted with the Eadie–Hofstee method by subtracting passive uptake from the total uptake.

Series [9] deals with hCMEC/D3 cells. As to the kind of experiment: Uptake kinetics in hCMEC/D3 cells. Particulars: for reduction of uptake at 4 °C compared to 37 °C: 10 μmol/L; for reduction of uptake at 4 °C compared to 37 °C / Kns, passive diffusion rate / Vmax/Km ratio, transporter-mediated uptake: 10 min; for Kns, passive diffusion rate / Vmax/Km ratio, transporter-mediated uptake: 2–400 μmol/L. It counts as cell-based, human. The method, then:
as §2

This is an account of results in PMC10975012, “The Active Glucuronide Metabolite of the Brain Protectant IMM-H004 with Poor Blood–Brain Barrier Permeability Demonstrates a High Partition in the Rat Brain via Multiple Mechanisms” (Pharmaceutics, 2024).

T1 sequence (P08183 whole entry): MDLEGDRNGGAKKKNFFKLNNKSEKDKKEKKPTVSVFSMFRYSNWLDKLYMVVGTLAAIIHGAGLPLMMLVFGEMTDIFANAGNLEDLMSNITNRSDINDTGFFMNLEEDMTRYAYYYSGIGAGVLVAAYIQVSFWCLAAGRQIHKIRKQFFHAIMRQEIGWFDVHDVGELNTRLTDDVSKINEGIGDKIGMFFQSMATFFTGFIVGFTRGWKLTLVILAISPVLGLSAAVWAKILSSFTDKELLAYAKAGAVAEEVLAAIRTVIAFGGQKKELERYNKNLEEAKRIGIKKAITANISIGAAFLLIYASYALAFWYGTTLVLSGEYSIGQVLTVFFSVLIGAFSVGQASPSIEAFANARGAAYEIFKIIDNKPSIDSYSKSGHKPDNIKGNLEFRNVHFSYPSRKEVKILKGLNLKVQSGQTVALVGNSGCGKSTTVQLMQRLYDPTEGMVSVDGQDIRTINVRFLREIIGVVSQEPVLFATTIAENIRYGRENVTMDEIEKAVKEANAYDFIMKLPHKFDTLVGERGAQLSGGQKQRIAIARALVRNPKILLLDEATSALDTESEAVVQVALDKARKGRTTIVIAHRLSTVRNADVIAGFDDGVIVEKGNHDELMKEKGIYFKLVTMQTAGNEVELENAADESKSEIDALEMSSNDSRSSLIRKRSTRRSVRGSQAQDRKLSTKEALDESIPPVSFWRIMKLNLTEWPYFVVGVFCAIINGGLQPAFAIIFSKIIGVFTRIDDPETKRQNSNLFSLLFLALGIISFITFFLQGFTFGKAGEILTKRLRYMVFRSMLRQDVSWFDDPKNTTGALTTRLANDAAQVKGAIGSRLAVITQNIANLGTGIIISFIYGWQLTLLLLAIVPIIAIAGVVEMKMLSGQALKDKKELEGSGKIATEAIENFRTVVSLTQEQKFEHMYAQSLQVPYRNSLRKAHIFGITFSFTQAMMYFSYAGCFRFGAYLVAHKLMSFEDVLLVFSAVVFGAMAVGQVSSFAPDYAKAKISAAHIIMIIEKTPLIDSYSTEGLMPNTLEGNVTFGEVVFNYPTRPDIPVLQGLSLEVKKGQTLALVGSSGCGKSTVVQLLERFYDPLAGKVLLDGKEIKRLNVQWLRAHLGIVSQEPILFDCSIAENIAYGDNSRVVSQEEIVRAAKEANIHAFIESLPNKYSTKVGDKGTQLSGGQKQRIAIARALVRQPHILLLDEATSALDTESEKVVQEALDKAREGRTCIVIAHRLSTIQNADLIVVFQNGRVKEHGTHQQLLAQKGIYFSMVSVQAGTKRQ

As a reminder, the fraction unbound is the share of the substance not bound to proteins or other matrix. What is called Km is the concentration of substrate that gives half-maximal velocity. Take `COc1cc(OC2OC(C(=O)O)C(O)C(O)C2O)cc2oc(=O)c(N3CCN(C)CC3)c(C)c12` (centres unmarked) [IMM-H004G]: the “change in Kin value with OATP inhibitor” value in [1] (rifamycin SV 100 μmol/L, 10 min perfusion, rat) is reported as “no significant change”. Besides, the “stability of IMM-H004G (change in concentration)” value in [2] (1 μmol/L, rat brain homogenate 2 mg/mL protein, 4 h) is “did not result in a reduction in its concentration”. For the same compound, in [3], the “effect of inhibitors of OAT, OCT, OCTN, BCRP, and MRP on uptake” value is on record as “No significant impact”. For the same compound, the “brain exposure relative to the parent drug” value in series [4] (rats) is on record as “six times higher”. In addition, the “uptake with P-gp inhibitor PSC833 relative to control” value in series [5] is “without affecting”. Further, the fraction unbound at 4 h in [6] was found to be 0.315 ± 0.008. In addition, in [7], the “reduction of uptake by quinidine” value is on record as “not affected” and the “reduction of uptake by verapamil” value is on record as “not affected”. Moreover, in series [8], the Km at 10 min worked out at 10.7 µM. In [9], the “reduction of uptake at 4 °C compared to 37 °C” value came to 70.6%; the “Kns, passive diffusion rate” value was 0.100 μL/min/mg protein; the “Vmax/Km ratio, transporter-mediated uptake” value was 1.50 μL/min/mg protein.

Consider `COc1cc(O)cc2oc(=O)c(N3CCN(C)CC3)c(C)c12` [IMM-H004], for which the “increase in Kin value with P-gp inhibitor PSC833 compared to control” value in [1] (PSC833 5 μmol/L, 10 min perfusion, rat) is reported as 4.3 times. For the same compound, the “Kin value relative to that of IMM-H004G” value in [1] (in situ rat brain perfusion) is 18 times higher. The “formation of IMM-H004G” value in [2] (IMM-H004 10 μmol/L, rat brain homogenate, 1 h) was “time-dependent”. The “effect of inhibitors of OAT, OCT, OCTN, BCRP, and MRP on uptake” value in [3] is “No significant impact”. Besides, the elimination half-life in series [4] (rat plasma and brain tissues, intravenous dosing) is reported as < 1 h. In series [5], the “uptake with P-gp inhibitor PSC833 relative to control” value is 1.3 times that of the control. Moreover, the fraction unbound at 4 h in series [6] turned out to be 0.025 ± 0.002. Also, in series [7], the “reduction of uptake by quinidine” value is reported as 57.7% and the “reduction of uptake by verapamil” value was 61.5%. Moreover, in series [8], the Km at 10 min was 89.5 µM. Moreover, in series [9], the “Kns relative to that of IMM-H004G” value is given as 8.77 times; the “reduction of uptake at 4 °C compared to 37 °C” value was found to be 57.1%; the “Kns, passive diffusion rate” value stood at 0.877 μL/min/mg protein; the “Vmax/Km ratio, transporter-mediated uptake” value was determined as 18.8 μL/min/mg protein.
